This is an account of results in patent US5767278A, “Telomerase inhibitors” (Geron Corporation, priority 1995, dated 1998).

The target in series [1] is T1, telomerase (Homo sapiens, UniProt O14746).
T1 construct: placing cells, tissues, or preferably a cellular extract or other preparation containing telomerase in contact with; endogenous in cells
In words: Inhibition of telomerase activity (IC50). The series is classed as biochemical. The source says: One method used to identify compounds of the invention that inhibit telomerase activity involves placing cells, tissues, or preferably a cellular extract or other preparation containing telomerase in contact with several known concentrations of a test compound in a buffer compatible with telomerase activity. […] Other methods for determining the inhibitory concentration of a compound of the invention against telomerase can be employed as will be apparent to those of skill in the art based on the disclosure herein.
With the above-described methods, IC50 values for several of the compounds of the present invention were determined. The values reported in Table 3 below are only approximate values; more exact IC50 values can be obtained by repetitive testing.

The subject of series [2] is telomerase-positive cells. In words: Telomere length in telomerase-positive cells treated with Compound XIV (one uncontrolled experiment). The series is classed as cell-based. The note with it: dosing period of about 48 hours. On the procedure:
Colonies of the tumor cell lines, such as the ovarian tumor cell lines OVCAR-5 and SK-OV-3, and normal human cells used as a control (e.g., normal human BJ cells) are prepared using standard methods and materials. In one test, the colonies are prepared by seeding 15-centimeter dishes with about 10^6 cells in each dish. The dishes are incubated to allow the cell colonies to grow to about 80% confluence, at which time each of the colonies are divided into two groups. One group is exposed to a subacute dose of a compound of the invention at a predetermined concentration (e.g., between about 5 μM and about 20 μM) for a period of about 4-8 hours after plating following the split; the other group is exposed to a control (e.g., DMSO).
Each group is then allowed to continue to divide, and the groups are split evenly again (near confluence). The same number of cells are seeded for continued growth. The compound or control is added every fourth day to the samples at the same concentration delivered initially. Remaining cells are analyzed for telomere length. As the untested cell cultures near confluence, the samples are split again as just described. […]
Telomere length is determined by digesting the DNA of the cells using restriction enzymes specific for sequences other than the repetitive T2 AG3 sequence of human telomeres. […]

A short description of series [3]: Half-life of Compound XIV. The series is classed as in vitro ADME. The note with it: additional data suggest; on the order of about.
Setting [4] is: Table 3, only approximate values.
[5] abbreviates: approximate IC50 values, summary of the table.

T1 sequence (O14746 whole entry): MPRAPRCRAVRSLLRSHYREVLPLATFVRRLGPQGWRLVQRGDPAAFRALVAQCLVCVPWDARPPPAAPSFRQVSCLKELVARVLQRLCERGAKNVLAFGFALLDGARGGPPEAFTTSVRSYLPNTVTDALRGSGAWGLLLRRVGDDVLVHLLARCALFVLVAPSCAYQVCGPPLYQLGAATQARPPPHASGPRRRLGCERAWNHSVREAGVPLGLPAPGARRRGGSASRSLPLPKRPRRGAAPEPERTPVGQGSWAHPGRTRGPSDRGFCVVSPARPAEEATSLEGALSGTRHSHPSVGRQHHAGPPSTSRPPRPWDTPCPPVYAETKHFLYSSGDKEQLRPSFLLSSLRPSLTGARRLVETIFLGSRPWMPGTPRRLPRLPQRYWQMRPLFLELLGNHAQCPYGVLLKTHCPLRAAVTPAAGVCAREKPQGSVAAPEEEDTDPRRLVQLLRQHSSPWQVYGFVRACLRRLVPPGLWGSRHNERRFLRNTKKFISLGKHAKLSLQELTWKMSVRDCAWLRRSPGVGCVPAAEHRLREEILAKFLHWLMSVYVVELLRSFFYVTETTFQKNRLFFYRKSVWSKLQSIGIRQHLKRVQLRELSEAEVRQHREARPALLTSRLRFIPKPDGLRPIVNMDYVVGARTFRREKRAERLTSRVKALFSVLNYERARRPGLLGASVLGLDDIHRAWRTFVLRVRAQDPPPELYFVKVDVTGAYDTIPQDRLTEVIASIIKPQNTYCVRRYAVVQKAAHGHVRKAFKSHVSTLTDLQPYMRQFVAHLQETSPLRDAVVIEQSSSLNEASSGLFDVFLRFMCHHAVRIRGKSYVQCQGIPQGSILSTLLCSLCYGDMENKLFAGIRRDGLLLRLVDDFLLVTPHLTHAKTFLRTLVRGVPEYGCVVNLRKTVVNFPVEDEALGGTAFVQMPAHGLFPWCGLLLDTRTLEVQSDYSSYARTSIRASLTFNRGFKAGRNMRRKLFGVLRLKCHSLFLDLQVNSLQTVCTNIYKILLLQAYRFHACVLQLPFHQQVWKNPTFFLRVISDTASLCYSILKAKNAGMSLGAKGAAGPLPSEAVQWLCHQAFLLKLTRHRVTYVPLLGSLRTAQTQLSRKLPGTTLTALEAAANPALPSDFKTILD
T1 sequence (O60832 whole entry partner): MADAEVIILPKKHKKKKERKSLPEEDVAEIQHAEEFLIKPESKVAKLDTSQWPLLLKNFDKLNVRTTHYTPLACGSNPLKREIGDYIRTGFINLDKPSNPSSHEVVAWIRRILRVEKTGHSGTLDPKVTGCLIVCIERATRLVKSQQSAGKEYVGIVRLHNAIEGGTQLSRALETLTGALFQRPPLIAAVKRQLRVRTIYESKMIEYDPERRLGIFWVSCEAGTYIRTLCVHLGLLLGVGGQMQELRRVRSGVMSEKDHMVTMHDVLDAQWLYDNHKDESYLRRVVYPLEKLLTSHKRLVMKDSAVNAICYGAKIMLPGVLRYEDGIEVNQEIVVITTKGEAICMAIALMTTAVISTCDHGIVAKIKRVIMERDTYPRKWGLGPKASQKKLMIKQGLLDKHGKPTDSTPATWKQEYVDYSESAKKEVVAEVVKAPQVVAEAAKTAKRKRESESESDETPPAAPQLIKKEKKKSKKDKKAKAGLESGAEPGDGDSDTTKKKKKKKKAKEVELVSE
T1 sequence (Q9NPE3 whole entry partner): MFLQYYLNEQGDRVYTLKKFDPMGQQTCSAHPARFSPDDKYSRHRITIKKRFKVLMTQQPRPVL
T1 sequence (Q9NX24 whole entry partner): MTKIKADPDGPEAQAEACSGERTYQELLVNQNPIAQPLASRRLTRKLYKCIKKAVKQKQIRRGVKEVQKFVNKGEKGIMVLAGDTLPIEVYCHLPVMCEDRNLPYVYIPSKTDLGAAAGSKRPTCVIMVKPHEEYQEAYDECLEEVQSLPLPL
T1 sequence (Q9NY12 whole entry partner): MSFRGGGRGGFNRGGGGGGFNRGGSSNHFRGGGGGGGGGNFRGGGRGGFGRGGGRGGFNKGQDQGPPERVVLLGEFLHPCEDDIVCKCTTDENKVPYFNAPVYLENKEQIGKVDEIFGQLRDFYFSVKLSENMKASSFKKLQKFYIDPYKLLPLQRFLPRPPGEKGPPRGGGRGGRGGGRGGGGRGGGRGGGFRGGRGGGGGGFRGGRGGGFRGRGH

In series [1] (setting [4]), `Cc1ccccc1CSc1nc(C=Nc2ncccc2C)ccc1C#N` [Compound XXIV] gave an IC50 of 3 µM.

For the compound `Cc1cccnc1N=Cc1ccc(C#N)c(SCc2ccc(C(C)C)cc2)n1` [Compound XXI], the IC50 in series [1] (setting [4]) was 2 µM. In the case of `Cc1cccnc1N=Cc1ccc(C#N)c(SCc2ccc3c(c2)C(C)(C)CCC3(C)C)n1` [Compound XLIII], the IC50 was under 3.2 µM in series [1] (setting [4]) and under 5 µM in series [1] (setting [5]). As for `N#Cc1ccc(C=Nc2ccc(Br)cn2)nc1SCc1ccc(Cl)s1` [Compound LII], the IC50 in series [1] (setting [4]) was under 3.2 µM; in series [1] (setting [5]) it was under 5 µM. `N#Cc1ccc(C=Nc2ccc(F)c(F)c2)nc1SCc1ccc(Cl)c(Cl)c1` [VI]: it took 10 µM to reach half-maximal inhibition in series [1] (setting [4]) (IC50). The same measure, in the same setting: as for `Cc1cccnc1N=Cc1ccc(C#N)c(SCc2ccccc2-c2ccccc2)n1` [Compound XVIII], the figure is 2 µM; as for `N#Cc1ccc(C=Nc2ccc3c(c2)C(=O)N(Cc2ccccc2)C3=O)nc1SCc1ccc(Cl)c(Cl)c1` [IX], 8 µM.

`Cc1cccnc1N=Cc1ccc(C#N)c(SCc2csc3ccc(Cl)cc23)n1` [Compound XLVII]: the IC50 in series [1] (setting [4]) was under 3.2 µM; in series [1] (setting [5]), under 5 µM. In series [1] (setting [4]), `Cc1cccnc1N=Cc1ccc(C#N)c(SCc2cccc(Cl)c2F)n1` [XXVIII] came in with an IC50 of 2 µM. Compound `Cc1cccnc1N=Cc1ccc(C#N)c(SCc2cc(Cl)cc(Cl)c2)n1` [Compound XXXVII] displayed an IC50 in series [1] (setting [5]) of under 5 µM. As for `Cc1cccnc1N=Cc1ccc(C#N)c(SCc2cc(Cl)cc(Cl)c2)n1` [Compound XXXII], in series [1] (setting [4]), the IC50 was under 3.2 µM. In the case of `COc1ccc(N=Cc2ccc(C#N)c(SCc3ccc(Cl)s3)n2)nc1` [Compound LIII], the half-maximal inhibitory concentration (IC50) in series [1] (setting [4]) was 5 µM; in series [1] (setting [5]), under 5 µM.

For the compound `Cc1cccnc1N=Cc1ccc(C#N)c(SCc2ccc(Cl)c(Cl)c2)n1` [Compound XIV], the IC50 in series [1] (setting [4]) was under 3.2 µM; in series [1] (setting [5]), under 5 µM. Also, the “shorting of telomere length” value in series [2] is “No significant shorting of telomere length was observed”. The half-life in series [3] is about 12 h. With `Cc1cccnc1N=Cc1ccc(C#N)c(SCC#CCSc2nc(C=Nc3ncccc3C)ccc2C#N)n1` [LXI], the results for the IC50 in series [1] (setting [4]) and in series [1] (setting [5]) were under 3.2 µM and under 5 µM, respectively. On to `Cc1cc(C)cc(CSc2nc(C=Nc3ncccc3C)ccc2C#N)c1` [Compound XXIX], for which the IC50 in series [1] (setting [4]) turned out to be 2 µM. This counts as single-digit micromolar. On to `Cc1ccc(CSc2nc(C=Nc3ncccc3C)ccc2C#N)c(C)c1` [Compound XXXI], for which the half-maximal inhibitory concentration (IC50) in series [1] (setting [4]) is under 3.2 µM. Still for that read-out and setting: with `Cc1ccc(N=Cc2ccc(C#N)c(SCc3ccc(Cl)c(Cl)c3)n2)nc1` [XIII] the figure was 7 µM. `Cc1cccnc1N=Cc1ccc(C#N)c(SCc2cc(C(F)(F)F)cc(C(F)(F)F)c2)n1` [Compound XVII] registered an IC50 in series [1] (setting [4]) of 2 µM. The compound `CCN1C(=O)c2ccc(N=Cc3ccc(C#N)c(SCc4ccc(Cl)c(Cl)c4)n3)cc2C1=O` [Compound X] registered an IC50 in series [1] (setting [4]) of 9 µM. Against the preceding compound, the IC50 is about 4.5-fold higher. For `Cc1ccnc(N=Cc2ccc(C#N)c(SCc3ccc(Cl)c(Cl)c3)n2)c1` [Compound XV], the IC50 in series [1] (setting [4]) was determined as 8 µM. In the case of `N#Cc1ccc(C=Nc2ccc(Br)c(C(F)(F)F)c2)nc1SCc1ccc(Cl)c(Cl)c1` [VII], in series [1] (setting [4]), the IC50 worked out at 12 µM. `Cc1cccnc1N=Cc1ccc(C#N)c(SCc2ccccc2Br)n1` [Compound XXIII] returned an IC50 in series [1] (setting [4]) of 2 µM. In the case of `N#Cc1ccc(C=Nc2ccc3c(c2)OCCO3)nc1SCc1ccc(Cl)c(Cl)c1` [VIII], 10 µM corresponded to half-maximal inhibition in series [1] (setting [4]) (IC50). As for `N#Cc1ccc(N=Cc2ccc(C#N)c(SCc3ccc(Cl)c(Cl)c3)n2)cc1Cl` [V], the IC50 in series [1] (setting [4]) was determined as 10 µM.

Compound `Cc1ccc(NN=Cc2ccc(C#N)c(SCc3ccc(Cl)c(Cl)c3)n2)cc1` [Compound LIV] registered an IC50 in series [1] (setting [4]) of 17 µM. The same measure, in the same setting: with `Cc1cccnc1N=Cc1ccc(C#N)c(SCc2c(Cl)cccc2Cl)n1` [Compound XVI] the figure was 1 µM. Take `Cc1cccnc1N=Cc1ccc(C#N)c(SCc2ccc(C(C)(C)C)cc2)n1` [Compound XXX]: in series [1] (setting [4]), inhibition was half-maximal at 2 µM (IC50). Take `Cc1ccc(NC(=S)NN=Cc2ccc(C#N)c(SCc3ccc(Cl)c(Cl)c3)n2)cc1` [Compound LVI]: half-maximal inhibition in series [1] (setting [4]) (IC50) required 18 µM. `Cc1cccnc1N=Cc1ccc(C#N)c(SCc2cc(Cl)cc3c2OCOC3)n1` [Compound XXV] gave an IC50 in series [1] (setting [4]) of 4 µM. In turn, `N#Cc1ccc(C=NNC(=S)Nc2ccc(F)cc2)nc1SCc1ccc(Cl)c(Cl)c1` [Compound LVII] yielded an IC50 in series [1] (setting [4]) of 18 µM. As for `Cc1ccc(C)c(CSc2nc(C=Nc3ncccc3C)ccc2C#N)c1` [Compound XXVI], the IC50 in series [1] (setting [4]) was determined as 0.9 µM. `Cc1cccnc1N=Cc1ccc(C#N)c(SCc2ccc(C=Cc3ccccc3)cc2)n1` [Compound XX]: 8 µM corresponded to half-maximal inhibition in series [1] (setting [4]) (IC50). `Cc1cccnc1N=Cc1ccc(C#N)c(SCc2ccccc2C(F)(F)F)n1` [Compound XIX]: in series [1] (setting [4]), half-maximal inhibition (IC50) was put at 3 µM. This IC50 is about 2.7-fold lower than that of the compound before.

In turn, `Cc1cccnc1N=Cc1ccc(C#N)c(SCc2ccc(-c3ccccc3)cc2)n1` [Compound XXII] yielded an IC50 in series [1] (setting [4]) of 2 µM. The compound `N#Cc1ccc(C=Nc2ccc(Cl)cc2)nc1SCc1ccc(Cl)c(Cl)c1` [III] displayed an IC50 in series [1] (setting [4]) of 6.5 µM. This IC50 is about 3.2-fold higher than that of the compound before.

Regarding `Cc1cccnc1N=Cc1ccc(C#N)c(SCc2ccc(C(F)(F)F)cc2C(F)(F)F)n1` [Compound XXVII], in series [1] (setting [4]), the IC50 was 5 µM. Turning to `COc1ccc(N=Cc2ccc(C#N)c(SCc3ccc(Cl)c(Cl)c3)n2)cc1` [IV], the IC50 in series [1] (setting [4]) was 4.9 µM; in series [1] (setting [5]), under 5 µM. In turn, `N#Cc1ccc(C=NNc2ccc(Cl)cc2)nc1SCc1ccc(Cl)c(Cl)c1` [Compound LV] yielded an IC50 in series [1] (setting [4]) of 19.2 µM. That is a double-digit micromolar value. The same measure, in the same setting: as for `Cc1nc(N=Cc2ccc(C#N)c(SCc3ccc(Cl)c(Cl)c3)n2)ccc1Br` [XII], the figure is 7 µM.
